Experiments:
[1] = tested on: human breast cancer cell HCC1806; assay: Proliferation of HCC1806 cells, MTT assay; format: cell-based; settings: HCC1806, 72 h, 3 days treatment, read-out: IC50 (inhibition of proliferation of HCC1806)
Procedure: Newly revived HCC1806 cells (purchased from Guangzhou Genio) were cultured and passaged for at least three generations before use. Cells were used at 90% confluency for experiments. Cells were digested with trypsinase and centrifuged at 800 rpm for 5 minutes. The cell pellets were resuspended in fresh RPMI1640 medium and cells were counted. Cells were seeded on 96-well cell culture plates at 2000 cells/well and incubated overnight at 37° C., 5% CO2. The stock solutions of the test substances (including the test compounds and the reference compound) were serially diluted to 8 concentrations with DMSO at a ratio of 1:3. Five μL of each of the serially diluted solutions were added to 120 μL of medium (diluted by 25 times) and mixed by shaking. […] The cell culture plates were returned to incubator at 37° C., 5% CO2 for 3 days. At the end of treatment the cell viability was determined by MTT colorimetric assay. Cell culture medium in each well was replaced by 100 μL/well of serum-free fresh medium containing MTT (0.5 mg/mL), and the culture was continued for additional 4 hours.
(§1) Data was analyzed by GraphPad Prism 6.0. The inhibitory effects of compounds on cell proliferation were plotted based on cell viability vs. the logarithm of compound concentration. Cell viability %=(ODcompound−ODbackground)/(ODDMSO−ODbackground)×100.

[2] = tested on: human colon cancer cell LoVo; assay: Proliferation of LoVo cells, MTT assay; format: cell-based; settings: 96 h, 4 days treatment, read-out: IC50 (inhibition of proliferation of LoVo)
Procedure: Newly revived LoVo cells (purchased from Shanghai Cell Institute) were cultured and passaged for at least three generations before use. Cells were used at 90% confluence for experiment. Cells were digested with trypsinase and centrifuged at 800 rpm for 5 minutes and the supernatant was discarded. The cell pellets were resuspended in fresh RPMI1640 medium and counted. Cells were seeded on 96-well cell culture plates at 5000 cells/well and incubated overnight at 37° C., 5% CO2. The stock solutions of the test substances (including the test compounds and the reference compound) were serially diluted to 8 concentrations with DMSO at a ratio of 1:3. 5 μL of each series diluted solutions was added to 120 μL of medium (diluted by 25 times) and mixed by shaking. […] The cell culture plates were returned to incubator at 37° C. and 5% CO2 for 4 days. At the end of treatment, the cell viability was determined by MTT colorimetric assay. Cell culture medium in each well was replaced by 100 μL/well of serum-free DMEM medium containing MTT (0.5 mg/mL), and the culture was continued for additional 4 hours. Medium was then discarded and 100 μL/well of DMSO was added.
as §1

CHK1 kinase = target: T1, CHK1 kinase (Homo sapiens, UniProt O14757); assay: CHK1 kinase inhibition, ADP-Glo kinase assay; format: biochemical; settings: ATP 10 μM, CHK1 1 ng/well; for IC50: read-out: IC50 (inhibitory effect on CHK1 kinase activity); for inhibition at 0.01 µM: compound concentration 10 nM, read-out: Inh % (inhibitory effect on CHK1 kinase activity)
T1 construct: purchased Promega V1941
T1 sequence (O14757 1-476): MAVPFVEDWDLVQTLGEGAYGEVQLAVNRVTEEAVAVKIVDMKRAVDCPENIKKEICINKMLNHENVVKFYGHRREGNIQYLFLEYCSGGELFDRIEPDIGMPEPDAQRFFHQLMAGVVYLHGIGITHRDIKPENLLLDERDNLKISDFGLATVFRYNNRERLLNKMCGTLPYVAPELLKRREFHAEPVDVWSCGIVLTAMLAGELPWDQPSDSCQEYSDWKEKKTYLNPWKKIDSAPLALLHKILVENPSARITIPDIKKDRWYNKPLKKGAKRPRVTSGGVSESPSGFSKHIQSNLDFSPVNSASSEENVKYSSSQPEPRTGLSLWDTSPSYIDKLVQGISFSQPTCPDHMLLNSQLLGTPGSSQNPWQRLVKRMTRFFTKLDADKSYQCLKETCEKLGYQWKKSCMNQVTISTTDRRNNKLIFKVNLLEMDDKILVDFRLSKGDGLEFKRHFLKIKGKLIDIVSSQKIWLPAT
Procedure: 2 μL of kinase CHK1 (#V1941, Promega), 1 μL of compound diluted with buffer, and 2 μL of ATP substrate was successively added to a 384-well plate (final concentration of CHK1 was 1 ng/well, ATP was 10 μM). The positive control wells contained CHK1, ATP and DMSO whereas the negative control wells contained ATP, DMSO without enzyme. The mixtures were centrifuged at 1000 rpm for 1 minute and kept in darkness at room temperature for 1 hour to react. Then, 5 μL of ADP-Glo reagent was added to each well and incubated at room temperature for 40 minutes. At the end of incubation, 10 μL of kinase detection reagent was added to each well, and the relative chemiluminescence values (RLU) were measured on Varioskan® Flash (Thermo). The following calculation was performed: Inhibition rate %=(RLU of positive control−RLU of compound)/(RLU of positive control−RLU of negative control)×100. Data were analyzed using GraphPad Prism6.0 and fitted using the curve equation: Y=Bottom+(Top-Bottom)/(1+10^((Log IC50−X)*HillSlope)), and IC50 values were calculated.

| IC50 [1] [nM] | IC50 [2] [nM] | IC50 (CHK1 kinase) [nM] | inhibition at 0.01 µM (CHK1 kinase) [%] | SMILES |
| --- | --- | --- | --- | --- |
| 8.7 | 9.1 | 1.72 | – | COc1cc(Cl)cc(OCC2CNC2)c1-c1cc(Nc2cnc(C#N)cn2)n[nH]1 [Example 67, 5-((5-(2-(azetidin-3-ylmethoxy)-4-chloro-6-methoxyphenyl)-1H-pyrazol-3-yl)amino)pyrazine-2-carbonitrile] |
| 69.2 | 66.6 | – | 85 | COc1c(C)ccc(OC[C@H]2CCCNC2)c1-c1cc(Nc2cnc(C#N)cn2)n[nH]1 [Example 42, (S)-5-((5-(2-methoxy-3-methyl-6-(piperidin-3-ylmethoxy)phenyl)-1H-pyrazol-3-yl)amino)pyrazine-2-carbonitrile] |
| 52.6 | 40.2 | 1.66 | – | Cc1cc(F)c(-c2cc(Nc3cnc(C#N)cn3)n[nH]2)c(OC[C@H]2CCCNC2)c1 [Example 63, (S)-5-((5-(2-fluoro-4-methyl-6-(piperidin-3-ylmethoxy)phenyl)-1H-pyrazol-3-yl)amino)pyrazine-2-carbonitrile] |
| 4.9 | 3.6 | 1.16 | – | COc1cc(Br)cc(OC[C@H]2CCNC2)c1-c1cc(Nc2cnc(C#N)cn2)n[nH]1 [Example 70, (S)-5-((5-(4-bromo-2-methoxy-6-(pyrrolidin-3-ylmethoxy)phenyl)-1H-pyrazol-3-yl)amino)pyrazine-2-carbonitrile] |
| 995 | > 1000 | – | 31 | N#Cc1cnc(Nc2cc(-c3c(OC[C@@H]4CNCCO4)cccc3OC(F)(F)F)[nH]n2)cn1 [Example 20, (S)-5-((5-(2-(morpholin-2-ylmethoxy)-6-(trifluoromethoxy)phenyl)-1H-pyrazol-3-yl)amino)pyrazine-2-carbonitrile] |
| 6.4 | 5.6 | 0.38 | – | COc1cccc(OCC2CNC2)c1-c1cc(Nc2cnc(C#N)cn2)n[nH]1 [Example 31, 5-((5-(2-(azetidin-3-ylmethoxy)-6-methoxyphenyl)-1H-pyrazol-3-yl)amino)pyrazine-2-carbonitrile] |
| 13.3 | 18 | 0.93 | – | COc1cc(C)cc(OC[C@@H]2CNCCO2)c1-c1cc(Nc2cnc(C#N)cn2)n[nH]1 [Example 44, (S)-5-((5-(2-methoxy-4-methyl-6-(morpholin-2-ylmethoxy)phenyl)-1H-pyrazol-3-yl)amino)pyrazine-2-carbonitrile] |
| 32.4 | 26 | – | 97 | COc1cccc(OC[C@H]2CCCCN2)c1-c1cc(Nc2cnc(C#N)cn2)n[nH]1 [Example 33, (R)-5-((5-(2-methoxy-6-(piperidin-2-ylmethoxy)phenyl)-1H-pyrazol-3-yl)amino)pyrazine-2-carbonitrile] |
| 4.4 | 5.1 | 0.85 | – | COc1cc(Br)cc(OC[C@H]2CCCNC2)c1-c1cc(Nc2cnc(C#N)cn2)n[nH]1 [Example 41, (S)-5-((5-(4-bromo-2-methoxy-6-(piperidin-3-ylmethoxy)phenyl)-1H-pyrazol-3-yl)amino)pyrazine-2-carbonitrile] |
| 187 | 192 | – | 85 | COc1cccc(OC[C@@H]2CNCCO2)c1-c1cc(Nc2cnc(C)cn2)n[nH]1 [Example 6, (S)—N-(5-(2-methoxy-6-(morpholin-2-ylmethoxy)phenyl)-1H-pyrazol-3-yl)-5-methylpyrazin-2-amine] |
| 5.5 | 6.6 | 0.88 | – | COc1cc(Cl)cc(OC[C@H]2CCCNC2)c1-c1cc(Nc2cnc(C#N)cn2)n[nH]1 [Example 40, (S)-5-((5-(4-chloro-2-methoxy-6-(piperidin-3-ylmethoxy)phenyl)-1H-pyrazol-3-yl)amino)pyrazine-2-carbonitrile] |
| 118 | 103 | – | 93 | COc1cnc(Nc2cc(-c3c(OC)cccc3OC[C@H]3CCCNC3)[nH]n2)cn1 [Example 26, (S)-5-methoxy-N-(5-(2-methoxy-6-(piperidin-3-ylmethoxy)phenyl)-1H-pyrazol-3-yl)pyrazin-2-amine] |
| 6.5 | 5.4 | 0.58 | – | N#Cc1cnc(Nc2cc(-c3c(O)cccc3OC[C@H]3CCCNC3)[nH]n2)cn1 [Example 48, (S)-5-((5-(2-hydroxy-6-(piperidin-3-ylmethoxy)phenyl)-1H-pyrazol-3-yl)amino)pyrazine-2-carbonitrile] |
| 89.4 | 72 | – | 95 | N#Cc1cnc(Nc2cc(-c3c(F)cccc3OCC3CNC3)[nH]n2)cn1 [Example 53, 5-((5-(2-(azetidin-3-ylmethoxy)-6-fluorophenyl)-1H-pyrazol-3-yl)amino)pyrazine-2-carbonitrile] |
| 1.6 | 1.6 | 1.17 | – | COc1cc(C)cc(OC[C@H]2CCCNC2)c1-c1cc(Nc2cnc(C#N)cn2)n[nH]1 [Example 43, (S)-5-((5-(2-methoxy-4-methyl-6-(piperidin-3-ylmethoxy)phenyl)-1H-pyrazol-3-yl)amino)pyrazine-2-carbonitrile] |
| > 1000 | > 1000 | – | 4.9 | COc1cccc(OC[C@@H]2CNCCN2C)c1-c1cc(Nc2cnc(C#N)cn2)n[nH]1 [Example 11, (S)-5-((5-(2-methoxy-6-((1-methylpiperazin-2-yl)methoxy)phenyl)-1H-pyrazol-3-yl)amino)pyrazine-2-carbonitrile] |
| 1 | 1 | 0.2 | – | COc1cc(F)cc(OC[C@H]2CCNC2)c1-c1cc(Nc2cnc(C#N)cn2)n[nH]1 [Example 39, (S)-5-((5-(4-fluoro-2-methoxy-6-(pyrrolidin-3-ylmethoxy)phenyl)-1H-pyrazol-3-yl)amino)pyrazine-2-carbonitrile] |
| 315 | 153 | – | 82 | N#Cc1cnc(Nc2cc(-c3c(F)cccc3OC[C@@H]3CNCCO3)[nH]n2)cn1 [Example 55, (S)-5-((5-(2-fluoro-6-(morpholin-2-ylmethoxy)phenyl)-1H-pyrazol-3-yl)amino)pyrazine-2-carbonitrile] |
| 14.7 | 13.3 | 0.59 | – | N#Cc1cnc(Nc2cc(-c3c(F)cccc3OC[C@H]3CCCNC3)[nH]n2)cn1 [Example 46, (S)-5-((5-(2-fluoro-6-(piperidin-3-ylmethoxy)phenyl)-1H-pyrazol-3-yl)amino)pyrazine-2-carbonitrile] |
| 24.8 | 23 | – | 95 | COc1cccc(OC[C@@H]2CNCCN2)c1-c1cc(Nc2cnc(C#N)cn2)n[nH]1 [Example 10, (S)-5-((5-(2-methoxy-6-(piperazin-2-ylmethoxy)phenyl)-1H-pyrazol-3-yl)amino)pyrazine-2-carbonitrile] |
